Measurements taken from patent US12162902B2, “Decarboxylase inhibitors for treating Parkinson's disease” (SAIL BIOMEDICINES, priority 2018, dated 2024).
pIC50: −log10 of the molar value. Read-outs that look alike come from different tables or passages of the source.

Assays:
[1] = molecular target: Tyrosine decarboxylase (tdc) (Enterococcus faecalis (strain EnGen0310 / MMH594), UniProt P0DTQ4); experiment: Inhibition of tyrosine decarboxylase in vitro (dopamine formed from levodopa, LC-MS); assay type: biochemical; details: 60 min preincubation of tdc with inhibitor at room temperature, pH 5.5, 9 mM levodopa, 5 min reaction
Tyrosine decarboxylase (tdc), sequence (P0DTQ4 whole entry): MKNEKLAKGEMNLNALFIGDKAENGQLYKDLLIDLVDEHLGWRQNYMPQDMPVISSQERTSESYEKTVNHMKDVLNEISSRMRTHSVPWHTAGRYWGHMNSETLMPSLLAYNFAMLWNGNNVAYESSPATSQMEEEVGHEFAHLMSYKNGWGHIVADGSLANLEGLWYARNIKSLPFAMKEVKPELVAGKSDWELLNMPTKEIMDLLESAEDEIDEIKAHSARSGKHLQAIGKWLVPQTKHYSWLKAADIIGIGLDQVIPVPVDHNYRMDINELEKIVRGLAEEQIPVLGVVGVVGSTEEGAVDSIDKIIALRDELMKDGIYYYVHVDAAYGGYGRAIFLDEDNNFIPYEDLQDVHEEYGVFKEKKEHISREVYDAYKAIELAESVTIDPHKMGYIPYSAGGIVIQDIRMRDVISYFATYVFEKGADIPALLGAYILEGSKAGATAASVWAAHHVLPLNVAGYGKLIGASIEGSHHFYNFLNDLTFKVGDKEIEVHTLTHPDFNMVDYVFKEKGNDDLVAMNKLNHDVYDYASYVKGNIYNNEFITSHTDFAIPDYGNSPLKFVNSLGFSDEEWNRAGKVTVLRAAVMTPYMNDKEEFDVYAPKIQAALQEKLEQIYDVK
Procedure: Tyrosine decarboxylase (tdc) was obtained by following a previously published literature procedure (Science, 14 Jun. 2019: Vol. 364, Issue 6445, eaau6323). Tdc (220 nM final concentration) was thawed on ice and then mixed with pyridoxal-5-phosphate (2.2 mM final concentration) in 200 mM sodium acetate buffer, pH 5.5 optionally containing 1 mM TCEP. To this mixture was added inhibitor at a final concentration of 1000, 333, 111, 37, 12, 4.1, 1.4, or 0 μM (final volume: 100 μL; inhibitor was 100-fold concentrated in a solution of DMSO, H2O, or DMSO:H2O (1/1 v/v)). The protein-inhibitor mixture was incubated at room temperature for 60 min. 6 μL of this mixture was then withdrawn from each solution and mixed with 54 μL of 10 mM levodopa in 200 mM sodium acetate buffer pH 5.5. The final concentration of the reaction was 22 nM tdc, 220 μM pyridoxal-5-phosphate, 9 mM levodopa in 200 mM sodium acetate buffer pH 5.5 with 0-100 μM inhibitor. The reaction was proceeded for 5 min at room temperature before quenching by addition of 540 μL acetonitrile containing 0.1 (v/v) formic acid supplemented with 200 nM tolbutamide as an internal standard. The reactions were centrifuged (3,000 g, 10 min), and then 100 μL of each supernatant was transferred to a fresh plate. 100 μL of acetonitrile containing 0.1% (v/v) formic acid supplemented with 200 nM tolbutamide was added. An external standard curve containing 0-150 μM dopamine was prepared in the exact same manner.
Dopamine formed in each reaction was quantified by using an Agilent 6470 triple quadrupole mass spectrometer equipped with an Acquity UPLC. Mobile phase A consisted of H2O containing 10 mM ammonium formate, pH 3.0 and supplemented with 0.1% (v/v) formic acid. Mobile phase B consisted of acetonitrile containing 10 mM ammonium formate, pH 3.0 and supplemented with 0.1% (v/v) formic acid. 5 μL of each sample was injected onto a BEH Amide column (Waters Corporation, 2.1×50 mm, 1.7 μm). The gradient was set to: 100% mobile phase B at 0 min, decreasing linearly to 65% mobile phase B by 1.5 min, held constant at 65% mobile phase B until 2.5 min, ramped back up to 100% mobile phase B by 2.6 min, and held constant at 100% mobile phase B until 4.2 min. The flow rate was 0.6 mL/min. The dopamine was detected by using the mass spectrometer in multiple reaction monitoring (MRM) mode, quantifying the transition 154.1 to 137.0 m/z in positive mode. The fragmentor setting was 74, the collision energy was 9, and the cell accelerator voltage was 4, and the dwell time was 20. Tolbutamide was monitored using MRM and quantifying the transition of 271.1 to 91.0 m/z in positive mode. The fragmentor setting was 88, the collision energy was 37, and the cell accelerator voltage was 4, and the dwell time was 20.
The amount of dopamine was quantified by normalizing the area to the area of tolbutamide internal standard within each sample. This relative response was then compared to that of the standard curve to obtain the dopamine formed within each sample. The concentration of dopamine formed as a function of the inhibitor concentration at the preincubation stage was plotted in GraphPad Prism 8, and the IC50 was calculated using the non-linear fit for the standard IC50 curve equation “[inhibitor] vs response (three parameters).”

[2] = system: Enterococcus faecalis v583; experiment: Inhibition of E. faecalis decarboxylation activity in vitro (residual levodopa, LC-MS); assay type: cell-based
[3] = Enterococcus faecalis, V583, E. faecalis v583 culture in BHI broth pH 5 with 1.5 mM levodopa, 24 h at 37° C. anaerobic, read-out: IC50 @ 60 min
[4] = E. faecalis v583 culture in BHI broth pH 5 with 1.5 mM levodopa, 24 h at 37° C. anaerobic, read-out: IC50 @ 60 min

| Compound | pIC50 ([1]; read-out: IC50 @ 60 min) | pIC50 [2, 3] | pIC50 ([1]; IC50 @ 60 min) | other results |
| --- | --- | --- | --- | --- |
| 2-amino-2-(fluoromethyl)-4-(4-hydroxyphenyl)butanoic acid [Compound U] | < 3.00 |  |  |  |
| CCC(N)(Cc1ccc(O)cc1)C(=O)O (stereo not drawn) [O, 2-amino-2-(4-hydroxybenzyl)butanoic Acid] |  | < 3.00 | < 3.00 |  |
| CC(N)(Cc1ccc(O)c(O)c1)C(=O)O (stereo not drawn) [Compound Q, 2-amino-3-(3,4-dihydroxyphenyl)-2-methylpropanoic Acid] |  | < 3.00 | < 3.00 |  |
| NC(CF)(Cc1ccccc1)C(=O)O (stereo not drawn) [Compound Z, 2-amino-2-benzyl-3-fluoropropanoic Acid] |  | < 3.00 | < 3.00 |  |
| NC(CF)(Cc1cccc(O)c1)C(=O)O (stereo not drawn) [Compound R, 2-amino-3-fluoro-2-(3-hydroxybenzyl)propanoic Acid] |  | < 3.00 |  | IC50 @ 60 min [1]: Minor inhibition |
| NC(CF)(Cc1ccc(O)c(F)c1)C(=O)O (stereo not drawn) [Compound M, 2-amino-3-fluoro-2-(3-fluoro-4-hydroxybenzyl)propanoic Acid] | 5.49 |  |  |  |
| NC(CF)(Cc1ccc(O)cc1)C(=O)O (single isomer, unassigned) [S] | 5.40 |  |  | pIC50 [2, 4]: 5.70 |
| NC(CF)(Cc1ccc(O)cc1)C(=O)O (single isomer, unassigned) [T] | 4.08 |  |  | pIC50 [2, 4]: 4.73 |
| COC(=O)NC(C)(Cc1ccc(O)cc1)C(=O)O (stereo not drawn) [Compound V, 3-(4-hydroxyphenyl)-2-((methoxycarbonyl)amino)-2-methylpropanoic Acid] |  | < 3.00 | < 3.00 |  |
| CC(=O)NC(CF)(Cc1ccc(O)cc1)C(=O)O (stereo not drawn) [Compound Y, 2-acetamido-3-fluoro-2-(4-hydroxybenzyl)propanoic acid] |  | < 3.00 | < 3.00 |  |
| NC(CF)(Cc1ccc(O)c(Cl)c1)C(=O)O (stereo not drawn) [Compound L, 2-amino-2-(3-chloro-4-hydroxybenzyl)-3-fluoropropanoic Acid] | 5.60 |  |  |  |
| COC(=O)NC(CF)(Cc1ccc(O)cc1)C(=O)O (stereo not drawn) [Compound W, 3-fluoro-2-(4-hydroxybenzyl)-2-((methoxycarbonyl)amino)-propanoic Acid] |  | < 3.00 | < 3.00 |  |
| CC(=O)NC(C)(Cc1ccc(O)cc1)C(=O)O (stereo not drawn) [Compound X, 2-acetamido-3-(4-hydroxyphenyl)-2-methylpropanoic Acid] |  | < 3.00 | < 3.00 |  |
| Cc1cc(CCN)ccc1O [Compound P, 4-(2-aminoethyl)-2-methylphenol] |  |  | < 3.00 | pIC50 ([2]; Enterococcus faecalis, V583, read-out: IC50 @ 60 min): < 3.00 |
| Cc1cc(CC(N)(CF)C(=O)O)ccc1O (stereo not drawn) [Compound N, 2-amino-3-fluoro-2-(4-hydroxy-3-methylbenzyl)propanoic Acid] | 5.59 |  |  |  |
| NC(Cc1ccc(O)cc1)(C(=O)O)C(F)F (stereo not drawn) [Compound K, 2-amino-3,3-difluoro-2-(4-hydroxybenzyl)propanoic Acid] |  |  |  | IC50 @ 60 min [1]: Minor inhibition |
